Test results reported in patent publication US12351559B2 (Biohaven Therapeutics Ltd., priority 2014, dated 2025).

What follows are molecules tested against T1, Kv7.2/7.3 (Homo sapiens, UniProt O43525+O43526) (assay: Kv7.2/7.3 activation assay, QPatch planar patch-clamp, single concentration screen). Conditions: Kv7.2/Kv7.3 co-expressing HEK cells, compound 3 μM, steady-state current at end of 2 s pulse to −30 mV.
T1 construct: host or cells: HEK cells, tetracycline-inducible expression
Format: cell-based
Parameters: key: <1.2-fold increase over baseline (−); +/−: as a range from <1.2-fold increase over baseline (−) up to >6-fold increase over baseline (+++); as a range from <1.2-fold increase over baseline (−) up to >6-fold increase over baseline (+++); as a range from <1.2-fold increase over baseline (−) up to >6-fold increase over baseline (+++); >6-fold increase over baseline (+++)
Method: The ability of compounds to potentiate K-currents in Kv7.2/7.3 containing HEK cells was assessed using planar patch-clamp on the QPatch automated screening platform.
Cell Line: The hKv7.2/7.3 cell line was obtained from Chantest (Cleveland, OH 44128) cat. #CT6147. These HEK cells will express the Kv7.2/7.3 ion channels when induced.
Cell Culture: Cells were maintained in a media containing DMEM/F12; 50/50 (GIBCO cat. #11330), 10% Fetal Bovine Serum (FBS) (GIBCO cat. #26140), 100 units/mL Penicillin-Streptomycin (GIBCO cat. #15140), 0.005 mg/mL Blasticidin (INVIVOGEN cat. #ant-bl-1), 0.5 mg/mL Geneticin (GIBCO cat. #10131), 0.1 mg/ml Zeocin (GIBCO cat. #R25001). Cells used in the electrophysiology assay were maintained in a media without Blasticidin, Geneticin and Zeocin for 2 days and channel expression was induced by adding tetracycline (BIOLINE cat. #BIO-87030) at a final concentration of 1 mg/mL. Cells were grown in T-175 flask to ˜75% confluency. Currents were recorded 24 hours after channel induction.
Compound Plates: Test compounds were prepared by performing serial dilutions on a Biomek NX^P (BECKMAN COULTER). Final dilutions were made in external recording solution with a final DMSO concentration of 0.1% DMSO. For single concentration screens each plate had 10 μM retigabine as a positive control and 0.1% DMSO as a negative control.
Electrophysiology: On the day of the experiment cells were washed with Hank's Balanced Salt Solution (HBBS) (GIBCO cat. #14175) and harvested with Tryple (GIBCO cat. #12604). Cells were then centrifuged at 2000 rpm for 5 minutes and resuspended in CHO-S-SFM (GIBCO cat. #12052) at ˜3×10^6 cells/mL. Cells were stirred for 30 minutes before experiments were started. External recording solution contained (in mM): NaCl (145), KCl (4), CaCl2 (2), MgCl2 (1), HEPES (10) and Glucose (10); pH was adjusted to 7.4 with NaOH and the osmolarity was adjusted to 300-305 mOsM with sucrose if necessary. Internal solution contained (in mM): KCl (125), KF (10), EGTA (5), Na2ATP (5), MgCl2 (3.2), HEPES (5); pH was adjusted to 7.2 with KOH and the osmolarity was adjusted to 298-302 mOsM with sucrose.
Potassium channel activity was measured on the QPatch HTX (Sophion Bioscience) using QPlates with 48-wells/plate. Each cell was taken as an independent experiment and only one compound was tested per well. Potassium channel activity was elicited by holding at −80 mV and stepping to −30 mV for 2 s followed by a 100 ms pulse to −120 mV.
Single concentration screen: Baseline conditions were obtained by recording 5 sweeps in the external solution only, this was repeated for three applications of the external solution. […] The steady-state current at the end of the 2 s pulse to −30 mV was measured to determine the fold increase from baseline.
CC(C)(O)CC(=O)Nc1nc2ccc(C(F)(F)F)cc2n1C1CCC1 [Example 35, N-(1-cyclobutyl-6-(trifluoromethyl)-1H-benzo[d]imidazol-2-yl)-3-hydroxy-3-methylbutanamide] was tested, and the “Kv7.2/7.3 Activity: increase in current over baseline” value (from here on “Kv7.2/7.3 Activity: increase”) was “+”.
With O=C(CC1(O)CCC1)Nc1nc2ccc(C(F)(F)F)cc2n1-c1cc(F)cc(F)c1 [Example 141, N-(1-(3,5-difluorophenyl)-6-(trifluoromethyl)-1H-benzo[d]imidazol-2-yl)-2-(1-hydroxycyclobutyl)acetamide] the “Kv7.2/7.3 Activity: increase” value was “+”.
With O=C(Nc1nc2ccc(C(F)(F)F)cc2n1C1CCC1)C1CC(F)(F)C1 [Example 38, N-(1-cyclobutyl-6-(trifluoromethyl)-1H-benzo[d]imidazol-2-yl)-3,3-difluorocyclobutane-1-carboxamide] the “Kv7.2/7.3 Activity: increase” value was “+/−”.
With Cc1cc2nc(NC(=O)C[C@@](C)(O)c3ccccc3)n(C(C)(C)C)c2cc1C#N [Example 120, (R)-N-(1-(tert-butyl)-6-cyano-5-methyl-1H-benzo[d]imidazol-2-yl)-3-hydroxy-3-phenylbutanamide] the “Kv7.2/7.3 Activity: increase” value was “+”.
For CC(C)(C)C(=O)Nc1nc2ccc(C(C)(C)O)cc2n1C1CCC1 [Example 90, N-(1-cyclobutyl-6-(2-hydroxypropan-2-yl)-1H-benzo[d]imidazol-2-yl)pivalamide], the “Kv7.2/7.3 Activity: increase” value was “+/−”.
For CC(C)(O)CC(=O)Nc1nc2cc(C(F)(F)F)cc(F)c2n1C1CCC1 [Example 133, N-(1-cyclobutyl-7-fluoro-5-(trifluoromethyl)-1H-benzo[d]imidazol-2-yl)-3-hydroxy-3-methylbutanamide], the “Kv7.2/7.3 Activity: increase” value was “+”.
CC(C)(C)CC(=O)Nc1nc2ccc(C(F)(F)F)cc2n1C1CCC1 [Example 34, N-(1-cyclobutyl-6-(trifluoromethyl)-1H-benzo[d]imidazol-2-yl)-3,3-dimethylbutanamide] was tested, and the “Kv7.2/7.3 Activity: increase” value was “++”.
With CC(C)(O)c1ccc2nc(NC(=O)C[C@](C)(O)c3ccccc3)n(C3CCC3)c2c1 [Example 84, (S)-N-(1-cyclobutyl-6-(2-hydroxypropan-2-yl)-1H-benzo[d]imidazol-2-yl)-3-hydroxy-3-phenylbutanamide] the “Kv7.2/7.3 Activity: increase” value was “+”.
With N#Cc1ccc2nc(NC(=O)C[C@@H](O)c3ccccc3)n(C3CCC3)c2c1 [Example 25, (R)-N-(6-cyano-1-cyclobutyl-1H-benzo[d]imidazol-2-yl)-3-hydroxy-3-phenylpropanamide] the “Kv7.2/7.3 Activity: increase” value was “+/−”.
In the case of Cc1cc2nc(NC(=O)CC(C)(C)C)n(C(C)(C)C)c2cc1C#N [Example 127, N-(1-(tert-butyl)-6-cyano-5-methyl-1H-benzo[d]imidazol-2-yl)-3,3-dimethylbutanamide], the “Kv7.2/7.3 Activity: increase” value is reported as “+”.
For CC(C)(O)CC(=O)Nc1nc2ccc(C(F)(F)F)cc2n1-c1ccc(OC(F)(F)F)cc1 [Example 137, 3-hydroxy-3-methyl-N-(1-(4-(trifluoromethoxy)phenyl)-6-(trifluoromethyl)-1H-benzo[d]imidazol-2-yl)butanamide], the “Kv7.2/7.3 Activity: increase” value was “+”.
CC(C)(C)CC(=O)Nc1nc2ccc(CC(C)(C)O)c(F)c2n1C1CCC1 [Example 114, N-(1-cyclobutyl-7-fluoro-6-(2-hydroxy-2-methylpropyl)-1H-benzo[d]imidazol-2-yl)-3,3-dimethylbutanamide] was tested, and the “Kv7.2/7.3 Activity: increase” value was “+”.
For COC(=O)c1cccc2nc(NC(=O)CC(C)(C)C)n(C3CCC3)c12 [Example 67, methyl 1-cyclobutyl-2-(3,3-dimethylbutanamido)-1H-benzo[d]imidazole-7-carboxylate], the “Kv7.2/7.3 Activity: increase” value was “+/−”.
For Cc1cc2nc(NC(=O)C[C@](C)(O)c3ccccc3F)n(C3CCC3)c2cc1C#N [Example 126, (S)-N-(6-cyano-1-cyclobutyl-5-methyl-1H-benzo[d]imidazol-2-yl)-3-(2-fluorophenyl)-3-hydroxybutanamide], the “Kv7.2/7.3 Activity: increase” value was “++”.
CC(C)(C)CC(=O)Nc1nc2ccc(C#N)cc2n1-c1ccc(F)cc1 [Example 31, N-(6-cyano-1-(4-fluorophenyl)-1H-benzo[d]imidazol-2-yl)-3,3-dimethylbutanamide] was tested, and the “Kv7.2/7.3 Activity: increase” value was “+”.
In the case of N#Cc1ccc2nc(NC(=O)C[C@H](O)c3ccccc3)n(C3CCC3)c2c1 [Example 26, (S)-N-(6-cyano-1-cyclobutyl-1H-benzo[d]imidazol-2-yl)-3-hydroxy-3-phenylpropanamide], the “Kv7.2/7.3 Activity: increase” value is reported as “+/−”.
C[C@](O)(CC(=O)Nc1nc2ccc(C#N)cc2n1C1CCC1)c1cccnc1 [Example 21, (S)-N-(6-cyano-1-cyclobutyl-1H-benzo[d]imidazol-2-yl)-3-hydroxy-3-(pyridin-3-yl)butanamide] was tested, and the “Kv7.2/7.3 Activity: increase” value was “+/−”.
In the case of CC(C)[C@H](C)C(=O)Nc1nc2ccc(C#N)cc2n1C1CCC1 [Example 6, (S)-N-(6-cyano-1-cyclobutyl-1H-benzo[d]imidazol-2-yl)-2,3-dimethylbutanamide], the “Kv7.2/7.3 Activity: increase” value is reported as “+”.
With CC1(C)C[C@@H]1C(=O)Nc1nc2ccc(C#N)cc2n1-c1ccc(F)cc1 [Example 33, (S)-N-(6-cyano-1-(4-fluorophenyl)-1H-benzo[d]imidazol-2-yl)-2,2-dimethylcyclopropane-1-carboxamide] the “Kv7.2/7.3 Activity: increase” value was “+”.
For C[C@H](C(=O)Nc1nc2ccc(C#N)cc2n1-c1ccc(F)cn1)C(C)(C)C [Example 75, (S)-N-(6-cyano-1-(5-fluoropyridin-2-yl)-1H-benzo[d]imidazol-2-yl)-2,3,3-trimethylbutanamide], the “Kv7.2/7.3 Activity: increase” value was “++”.
In the case of CC(C)[C@H](C)C(=O)Nc1nc2ccc(CO)cc2n1C1CCC1 [Example 52, (S)-N-(1-cyclobutyl-6-(hydroxymethyl)-1H-benzo[d]imidazol-2-yl)-2,3-dimethylbutanamide], the “Kv7.2/7.3 Activity: increase” value is reported as “+/−”.
For CC1(C)C[C@@H]1C(=O)Nc1nc2ccc(C(F)(F)F)cc2n1C1CCC1 [Example 37, (S)-N-(1-cyclobutyl-6-(trifluoromethyl)-1H-benzo[d]imidazol-2-yl)-2,2-dimethylcyclopropane-1-carboxamide], the “Kv7.2/7.3 Activity: increase” value was “+”.
C[C@H](C(=O)Nc1nc2ccc(C#N)cc2n1C1CCC1)[C@@](C)(O)c1ccccc1 [Example 18, (2S,3R)-N-(6-cyano-1-cyclobutyl-1H-benzo[d]imidazol-2-yl)-3-hydroxy-2-methyl-3-phenylbutanamide] was tested, and the “Kv7.2/7.3 Activity: increase” value was “+”.
C[C@H](C(=O)Nc1nc2ccc(C#N)cc2n1C1CCC1)C(C)(C)O [Example 13, (S)-N-(6-cyano-1-cyclobutyl-1H-benzo[d]imidazol-2-yl)-3-hydroxy-2,3-dimethylbutanamide] was tested, and the “Kv7.2/7.3 Activity: increase” value was “+/−”.
For C[C@H](C(=O)Nc1nc2ccc(C#N)cc2n1-c1ccc(F)cc1)C(C)(C)C [Example 71, (S)-N-(6-cyano-1-(4-fluorophenyl)-1H-benzo[d]imidazol-2-yl)-2,3,3-trimethylbutanamide], the “Kv7.2/7.3 Activity: increase” value was “+”.
In the case of CC(C)(C)CC(=O)Nc1nc2ccc(C#N)cc2n1C1CCC1 [Example 5, N-(6-cyano-1-cyclobutyl-1H-benzo[d]imidazol-2-yl)-3,3-dimethylbutanamide], the “Kv7.2/7.3 Activity: increase” value is reported as “+++ (>6-fold increase over baseline (+++))”.
With CCOC(=O)Cc1ccc2nc(NC(=O)CC(C)(C)C)n(C3CCC3)c2c1F [Example 110, ethyl 2-(1-cyclobutyl-2-(3,3-dimethylbutanamido)-7-fluoro-1H-benzo[d]imidazol-6-yl)acetate] the “Kv7.2/7.3 Activity: increase” value was “+”.
C[C@](O)(CC(=O)Nc1nc2ccc(Cl)cc2n1C1CCC1)c1ccc(F)cc1 [Example 103, (S)-N-(6-chloro-1-cyclobutyl-1H-benzo[d]imidazol-2-yl)-3-(4-fluorophenyl)-3-hydroxybutanamide] was tested, and the “Kv7.2/7.3 Activity: increase” value was “+”.
